Laboratory results published in publication PMC6409085, “Three odorant-binding proteins are involved in the behavioral response of Sogatella furcifera to rice plant volatiles” (PeerJ, 2019).
Values joined by “and” are separate entries in the source; they are usually repeats but may differ in a detail not shown here. Identical values can stand only once.

How the values were obtained:
[1] = target: SfurOBP2 (Sogatella furcifera, UniProt V5T759); test: Binding of 1-NPN to SfurOBP2 (fluorescence titration); conditions: for Fluorescence intensity: OBP2, triplicate columns
Experimental: (§1) Fluorescence competitive binding assays were performed on Tecan Spark 10M (Tecan Group Ltd., Männedorf, Switzerland) with the F96 Black ELIAS Plate (Sangon) ([Khuhro et al., 2017]; [Liu et al., 2017]). The solutions were excited at 337 nm and emission spectra were recorded between 390 and 490 nm. First, to test the binding constants of 1-NPN to the SfurOBPs, a 2.0 µM solution of protein in 50 mM Tris-HCl (pH = 7.4) was titrated with 1 mM 1-NPN to achieve virous concentrations. Next, the competitive binding of each odorant was measured using the 1-NPN as fluorescent reporter and odorant as competitor. The concentrations of protein and 1-NPN were both 2.0 µM, the odorant added after protein and 1-NPN added into the well of ELIAS Plate for 2 min. The final concentrations of each competitor were 2, 4, 6, 8, 10, 12, 14, 16, 18 and 20 µM. After 2 min of odorant added, the fluorescence intensity was measured and recorded. The volume of mixed solution in each well was maintained at 250 µL. Each interaction was performed in triplicates.
(§2) GraphPad Prism 7.0 software (GraphPad Software, Inc., La Jolla, CA, USA) was used to calculated and generated the binding constants (K1−NPN) of 1-NPN to SfurOBPs and relative Scatchard plots ([Ban et al., 2003]; [Li et al., 2016]). Dissociation constant (Ki) of each odorant to SfurOBP was computed from the corresponding IC50 value (the half maximal inhibitory concentration), using the following equation: Ki=[IC50]/(1 + [1-NPN]/K1−NPN), where [1-NPN] is the free concentration of 1-NPN and K1−NPN is the dissociation constant of the complex protein/1-NPN.

[2] = target: SfurOBP3 (Sogatella furcifera, UniProt V5T818); test: Binding of 1-NPN to SfurOBP3 (fluorescence titration); conditions: for Fluorescence intensity: OBP3, triplicate columns
Experimental: as §1, §2

[3] = target: SfurOBP1 (Sogatella furcifera, UniProt V5T8N5); test: Binding of 1-NPN to SfurOBP1 (fluorescence titration); conditions: for Fluorescence intensity: OBP1, triplicate columns
Experimental: as §1, §2

[4] = target: SfurOBP11 (Sogatella furcifera, UniProt V5T6E3); test: Binding of 1-NPN to SfurOBP11 (fluorescence titration); conditions: for Fluorescence intensity: OBP11, triplicate columns
Experimental: as §1, §2

Chain of SfurOBP3 (V5T818 entry or part of it): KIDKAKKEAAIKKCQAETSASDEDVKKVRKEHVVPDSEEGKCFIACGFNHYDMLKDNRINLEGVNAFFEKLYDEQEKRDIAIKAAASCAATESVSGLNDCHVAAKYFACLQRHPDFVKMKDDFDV
Chain of SfurOBP1 (V5T8N5 entry or part of it): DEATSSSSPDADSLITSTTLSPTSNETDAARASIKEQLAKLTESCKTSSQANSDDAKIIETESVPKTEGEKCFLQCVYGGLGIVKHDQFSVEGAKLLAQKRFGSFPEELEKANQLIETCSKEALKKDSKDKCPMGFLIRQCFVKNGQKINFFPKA
Chain of SfurOBP11 (V5T6E3 entry or part of it): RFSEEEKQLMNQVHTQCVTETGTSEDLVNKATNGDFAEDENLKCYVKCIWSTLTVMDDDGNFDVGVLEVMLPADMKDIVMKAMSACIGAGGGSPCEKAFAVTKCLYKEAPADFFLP
Chain of SfurOBP2 (V5T759 entry or part of it): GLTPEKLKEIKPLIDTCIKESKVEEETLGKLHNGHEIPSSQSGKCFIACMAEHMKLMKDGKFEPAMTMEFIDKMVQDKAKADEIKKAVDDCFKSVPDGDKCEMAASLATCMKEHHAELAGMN

Q: How did the Fluorescence intensity ([1]; 1-NPN 2 (unit not given)) turn out when c1ccc(Nc2cccc3ccccc23)cc1 [1-NPN, N-phenyl-1-naphthylamine] was run?
A: The Fluorescence intensity was 23662 and 22289 and 22010.

Q: And the Fluorescence intensity ([1]; 1-NPN 4 (unit not given))?
A: The Fluorescence intensity was 39603 and 44704 and 31870.

Q: And the Fluorescence intensity ([1]; 1-NPN 6 (unit not given))?
A: Its Fluorescence intensity is 50431 and 46158 and 47197.

Q: What about the Fluorescence intensity ([1]; 1-NPN 8 (unit not given)) of the same molecule?
A: Its Fluorescence intensity is 61337 and 63137 and 57001.

Q: What about the Fluorescence intensity ([1]; 1-NPN 10 (unit not given)) of the same molecule?
A: Its Fluorescence intensity is 59819 and 73730 and 69974.

Q: What about the Fluorescence intensity ([1]; 1-NPN 14 (unit not given)) of the same molecule?
A: Its Fluorescence intensity is 64863 and 65896 and 57584.

Q: What about the Fluorescence intensity ([1]; 1-NPN 16 (unit not given)) of the same molecule?
A: The Fluorescence intensity was 70787 and 76872 and 65200.

Q: And the Fluorescence intensity ([1]; 1-NPN 18 (unit not given))?
A: The Fluorescence intensity was 75833 and 70878 and 75400.

Q: What about the Fluorescence intensity ([1]; 1-NPN 20 (unit not given)) of the same molecule?
A: The Fluorescence intensity was 67482 and 73624 and 78268.

Q: And the Fluorescence intensity ([1]; 1-NPN 22 (unit not given))?
A: Its Fluorescence intensity is 76334 and 74639 and 64277.

Q: And the Kd ([1]; SfurOBP2, 2.0 µM protein, 50 mM Tris-HCl pH 7.4, read-out: dissociation constant of 1-NPN)?
A: The Kd was 5.67 µM.

Q: And the Fluorescence intensity ([2]; 1-NPN 2 (unit not given))?
A: The Fluorescence intensity was 61430 and 58985 and 59650.

Q: And the Fluorescence intensity ([2]; 1-NPN 4 (unit not given))?
A: The Fluorescence intensity was 77503 and 80113 and 80262.

Q: And the Fluorescence intensity ([2]; 1-NPN 6 (unit not given))?
A: Its Fluorescence intensity is 85325 and 83919 and 82776.

Q: What about the Fluorescence intensity ([2]; 1-NPN 8 (unit not given)) of the same molecule?
A: Its Fluorescence intensity is 97386 and 97137 and 85039.

Q: What about the Fluorescence intensity ([2]; 1-NPN 10 (unit not given)) of the same molecule?
A: Its Fluorescence intensity is 98049 and 103605 and 94167.

Q: What about the Fluorescence intensity ([2]; 1-NPN 12 (unit not given)) of the same molecule?
A: The Fluorescence intensity was 100936 and 110967 and 98958.

Q: And the Fluorescence intensity ([2]; 1-NPN 14 (unit not given))?
A: The Fluorescence intensity was 99019 and 113580 and 103187.

Q: What about the Fluorescence intensity ([2]; 1-NPN 16 (unit not given)) of the same molecule?
A: Its Fluorescence intensity is 114929 and 113428 and 104178.

Q: What about the Fluorescence intensity ([2]; 1-NPN 18 (unit not given)) of the same molecule?
A: The Fluorescence intensity was 121020 and 111471 and 116920.

Q: And the Fluorescence intensity ([2]; 1-NPN 20 (unit not given))?
A: Its Fluorescence intensity is 114200 and 113028 and 114937.

Q: And the Fluorescence intensity ([2]; 1-NPN 22 (unit not given))?
A: Its Fluorescence intensity is 115221 and 112203 and 110696.

Q: What about the Fluorescence intensity ([2]; 1-NPN 24 (unit not given)) of the same molecule?
A: The Fluorescence intensity was 120756 and 110811 and 112155.

Q: What about the Fluorescence intensity ([2]; 1-NPN 26 (unit not given)) of the same molecule?
A: The Fluorescence intensity was 117527 and 109823 and 115694.

Q: What about the Fluorescence intensity ([2]; 1-NPN 28 (unit not given)) of the same molecule?
A: Its Fluorescence intensity is 107913 and 111968 and 118918.

Q: What about the Fluorescence intensity ([2]; 1-NPN 30 (unit not given)) of the same molecule?
A: Its Fluorescence intensity is 110746 and 113690 and 116658.

Q: And the Kd ([2]; SfurOBP3, 2.0 µM protein, 50 mM Tris-HCl pH 7.4, read-out: dissociation constant of 1-NPN)?
A: The Kd was 2.42 µM.

Q: And the Fluorescence intensity ([3]; 1-NPN 2 (unit not given))?
A: The Fluorescence intensity was 7934 and 7244 and 7558.

Q: What about the Fluorescence intensity ([3]; 1-NPN 4 (unit not given)) of the same molecule?
A: Its Fluorescence intensity is 14870 and 13520 and 13256.

Q: What about the Fluorescence intensity ([3]; 1-NPN 6 (unit not given)) of the same molecule?
A: The Fluorescence intensity was 19450 and 20173 and 19826.

Q: And the Fluorescence intensity ([3]; 1-NPN 8 (unit not given))?
A: Its Fluorescence intensity is 25948 and 27851 and 26112.

Q: What about the Fluorescence intensity ([3]; 1-NPN 10 (unit not given)) of the same molecule?
A: The Fluorescence intensity was 30874 and 31162 and 28910.

Q: And the Fluorescence intensity ([3]; 1-NPN 12 (unit not given))?
A: The Fluorescence intensity was 33259 and 35914 and 35970.

Q: What about the Fluorescence intensity ([3]; 1-NPN 14 (unit not given)) of the same molecule?
A: The Fluorescence intensity was 37528 and 37617 and 40532.

Q: What about the Fluorescence intensity ([3]; 1-NPN 16 (unit not given)) of the same molecule?
A: Its Fluorescence intensity is 43674 and 43309 and 43505.

Q: And the Fluorescence intensity ([3]; 1-NPN 18 (unit not given))?
A: The Fluorescence intensity was 50472 and 51665 and 48009.

Q: And the Fluorescence intensity ([3]; 1-NPN 20 (unit not given))?
A: Its Fluorescence intensity is 53471 and 53438 and 53794.

Q: And the Fluorescence intensity ([3]; 1-NPN 22 (unit not given))?
A: The Fluorescence intensity was 54404 and 53461 and 54332.

Q: And the Fluorescence intensity ([3]; 1-NPN 24 (unit not given))?
A: The Fluorescence intensity was 55616 and 55933 and 55336.

Q: What about the Fluorescence intensity ([3]; 1-NPN 26 (unit not given)) of the same molecule?
A: The Fluorescence intensity was 55005 and 58722 and 54776.

Q: What about the Fluorescence intensity ([3]; 1-NPN 28 (unit not given)) of the same molecule?
A: Its Fluorescence intensity is 60087 and 56565 and 53471.

Q: What about the Fluorescence intensity ([3]; 1-NPN 30 (unit not given)) of the same molecule?
A: The Fluorescence intensity was 59000 and 55051 and 51066.

Q: What about the Kd ([3]; SfurOBP1, 2.0 µM protein, 50 mM Tris-HCl pH 7.4, read-out: dissociation constant of 1-NPN) of the same molecule?
A: Its Kd is 24.2 µM.

Q: And the Fluorescence intensity ([4]; 1-NPN 2 (unit not given))?
A: The Fluorescence intensity was 34926 and 31369 and 32128.

Q: What about the Fluorescence intensity ([4]; 1-NPN 4 (unit not given)) of the same molecule?
A: Its Fluorescence intensity is 46136 and 60649 and 53421.

Q: And the Fluorescence intensity ([4]; 1-NPN 6 (unit not given))?
A: Its Fluorescence intensity is 59058 and 63562 and 67479.

Q: What about the Fluorescence intensity ([4]; 1-NPN 8 (unit not given)) of the same molecule?
A: Its Fluorescence intensity is 73431 and 79398 and 77472.

Q: What about the Fluorescence intensity ([4]; 1-NPN 10 (unit not given)) of the same molecule?
A: Its Fluorescence intensity is 83685 and 83190 and 84209.

Q: What about the Fluorescence intensity ([4]; 1-NPN 12 (unit not given)) of the same molecule?
A: The Fluorescence intensity was 87527 and 87829 and 87441.

Q: What about the Fluorescence intensity ([4]; 1-NPN 14 (unit not given)) of the same molecule?
A: The Fluorescence intensity was 113208 and 119321 and 82397.

Q: What about the Fluorescence intensity ([4]; 1-NPN 16 (unit not given)) of the same molecule?
A: The Fluorescence intensity was 121541 and 129453 and 101542.

Q: And the Fluorescence intensity ([4]; 1-NPN 18 (unit not given))?
A: The Fluorescence intensity was 129684 and 132053 and 101150.

Q: What about the Fluorescence intensity ([4]; 1-NPN 20 (unit not given)) of the same molecule?
A: The Fluorescence intensity was 142842 and 126669 and 108121.

Q: And the Fluorescence intensity ([4]; 1-NPN 22 (unit not given))?
A: The Fluorescence intensity was 118001 and 129399 and 126785.

Q: What about the Fluorescence intensity ([4]; 1-NPN 24 (unit not given)) of the same molecule?
A: Its Fluorescence intensity is 123359 and 122043 and 121686.

Q: And the Kd ([4]; SfurOBP11, 2.0 µM protein, 50 mM Tris-HCl pH 7.4, read-out: dissociation constant of 1-NPN)?
A: The Kd was 10.4 µM.
